Data on 23 molecules can be found in ChEMBL document CHEMBL1201862, “PubChem BioAssay data set” (2004).

In assay [1] the target is FAD-linked sulfhydryl oxidase ALR (Homo sapiens, UniProt P55789). Put plainly: inhibitors of human ALR sulfhydryl oxidase, dose response, biochemical, H2O2 detection, luminescence, cherry-pick (AID 493248).
The target in assay [2] is T1, Polyadenylate-binding protein 1 (Homo sapiens, UniProt P11940). Put plainly: PABP1 MLLE–PAM2 interaction inhibitors, dose response, miRNA deadenylation inhibitor project, biochemical, fluorescence polarization, Cy5-PAM2 peptide, secondary (AID 602260). Format: functional. Particulars: read-out: IC50_Mean.
A short description of assay [3]: Luminescence Cell-Based Dose Confirmation HTS to Identify Activators of 5'UTR Stem-Loop Driven Alpha-Synuclein mRNA Translation in H4 Neuroglioblastoma Cells. [Related pubchem assays: 1829 (Project Summary), 1814 (Primary HTS)]. The class given is functional.
A short description of assay [4]: Luminescence Cell-Based Dose Response HTS to Identify Activators of Luciferase Translation or Activity in H4 […] Cells. [Related pubchem assays: 1829 (Project Summary), 1814 (Primary HTS)]. The class given is functional.
In another assay the test system is H4. As to the kind of experiment: Luminescence Cell-Based Dose Response HTS to Identify Activators of 5'UTR Stem-Loop Driven Prion Protein mRNA Translation in H4 Neuroglioblastoma Cells. [Related pubchem assays: 1829 (Project Summary), 1814 (Primary HTS)]. The class given is functional. The conditions noted are these: Homo sapiens.
Assay [5] has as its target T1, Polyadenylate-binding protein 1. As to the kind of experiment: PABP1 MLLE–PAM2 binding inhibitor potency, dose response, biochemical, fluorescence polarization, FITC-PAM2 peptide (AID 602259). Particulars: read-out: IC50_Mean. The class given is functional.
A further assay has as its system SN12K1. As to the kind of experiment: cells. The class given is functional. The conditions noted are these: Homo sapiens.
A further assay concerns P388. Put plainly: cells. Particulars: Mus musculus. Format: functional.
The next assay concerns P388/ADR. Put plainly: cells. The class given is functional. The conditions noted are these: Mus musculus.
Assay [6] is described as follows: Vero E6 cell cytotoxicity, dose response, cytotoxicity control for non-replicating M. tuberculosis project, secondary assay (AID 492998). Format: functional, VeroE6. The conditions noted are these: Vero C1008.
A short description of assay [7]: THP-1 cell cytotoxicity, dose response, cytotoxicity control for non-replicating M. tuberculosis project (AID 489025). The class given is functional.
Another assay can be described thus: cells. The class given is functional.
The nature of assay [8]: microbe, parasite or virus in culture. The class given is functional. Particulars: Mycobacterium tuberculosis.
In assay [9] the target is T2, Histone-lysine N-methyltransferase NSD2 (Homo sapiens, UniProt O96028).
T2 sequence (O96028 whole entry): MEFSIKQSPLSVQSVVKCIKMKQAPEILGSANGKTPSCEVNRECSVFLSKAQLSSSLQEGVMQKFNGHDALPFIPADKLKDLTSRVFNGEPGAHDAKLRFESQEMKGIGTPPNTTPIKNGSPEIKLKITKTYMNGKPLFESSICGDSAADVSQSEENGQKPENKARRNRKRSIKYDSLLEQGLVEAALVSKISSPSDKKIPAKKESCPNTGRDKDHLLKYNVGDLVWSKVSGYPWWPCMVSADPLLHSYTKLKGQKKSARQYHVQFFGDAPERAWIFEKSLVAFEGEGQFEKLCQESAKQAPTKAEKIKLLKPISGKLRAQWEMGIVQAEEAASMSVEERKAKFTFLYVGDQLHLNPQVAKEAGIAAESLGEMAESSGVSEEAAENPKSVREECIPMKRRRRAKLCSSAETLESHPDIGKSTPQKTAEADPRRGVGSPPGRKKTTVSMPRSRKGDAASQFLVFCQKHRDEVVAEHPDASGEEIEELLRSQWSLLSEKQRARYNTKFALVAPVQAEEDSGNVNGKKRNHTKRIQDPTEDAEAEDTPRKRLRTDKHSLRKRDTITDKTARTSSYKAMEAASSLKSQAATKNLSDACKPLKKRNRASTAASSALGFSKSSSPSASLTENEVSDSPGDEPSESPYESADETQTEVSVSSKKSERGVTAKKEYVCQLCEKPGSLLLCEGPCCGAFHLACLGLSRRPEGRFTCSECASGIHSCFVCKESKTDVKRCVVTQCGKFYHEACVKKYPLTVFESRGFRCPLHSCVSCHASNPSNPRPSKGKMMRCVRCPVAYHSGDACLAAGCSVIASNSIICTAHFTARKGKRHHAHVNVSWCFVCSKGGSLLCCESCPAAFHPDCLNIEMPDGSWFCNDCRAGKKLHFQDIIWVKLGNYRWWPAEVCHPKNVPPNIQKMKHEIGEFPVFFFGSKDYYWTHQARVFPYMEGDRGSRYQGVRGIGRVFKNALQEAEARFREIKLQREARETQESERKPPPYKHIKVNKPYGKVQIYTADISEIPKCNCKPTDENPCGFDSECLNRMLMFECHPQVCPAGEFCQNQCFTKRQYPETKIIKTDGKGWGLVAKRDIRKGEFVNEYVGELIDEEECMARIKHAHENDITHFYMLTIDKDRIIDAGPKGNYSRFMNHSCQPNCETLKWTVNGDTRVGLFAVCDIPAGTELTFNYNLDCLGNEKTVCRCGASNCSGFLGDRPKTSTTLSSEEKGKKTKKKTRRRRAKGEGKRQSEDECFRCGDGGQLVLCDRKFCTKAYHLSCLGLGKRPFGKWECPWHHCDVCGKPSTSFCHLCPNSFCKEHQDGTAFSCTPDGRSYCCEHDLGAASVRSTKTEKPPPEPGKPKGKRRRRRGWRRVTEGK
The class given is biochemical.

Assay [10] has as its target T3, Rac GTPase-activating protein 1 (Homo sapiens, UniProt Q9H0H5).
T3 sequence (Q9H0H5 whole entry): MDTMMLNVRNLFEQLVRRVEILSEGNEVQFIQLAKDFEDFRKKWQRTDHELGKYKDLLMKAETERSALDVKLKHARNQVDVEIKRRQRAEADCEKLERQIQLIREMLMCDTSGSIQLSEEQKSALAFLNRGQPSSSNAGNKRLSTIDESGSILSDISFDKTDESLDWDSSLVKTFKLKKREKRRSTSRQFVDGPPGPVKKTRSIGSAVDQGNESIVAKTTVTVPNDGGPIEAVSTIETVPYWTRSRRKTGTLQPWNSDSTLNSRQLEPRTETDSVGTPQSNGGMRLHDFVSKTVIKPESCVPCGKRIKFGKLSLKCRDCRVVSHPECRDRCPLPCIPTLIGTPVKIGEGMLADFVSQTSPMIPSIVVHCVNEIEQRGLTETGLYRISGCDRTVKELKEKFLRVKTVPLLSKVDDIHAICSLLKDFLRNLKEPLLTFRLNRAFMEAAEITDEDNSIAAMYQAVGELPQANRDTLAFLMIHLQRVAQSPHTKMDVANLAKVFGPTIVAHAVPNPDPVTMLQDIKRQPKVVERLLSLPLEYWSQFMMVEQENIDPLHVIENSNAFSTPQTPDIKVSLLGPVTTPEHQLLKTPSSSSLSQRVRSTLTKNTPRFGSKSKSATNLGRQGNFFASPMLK
Put plainly: MgcRacGAP GTPase-activating activity inhibitors, confirmation, biochemical, ADP Hunter fluorescence, primary and confirmatory (AID 624330). The class given is functional.

Assay [11] concerns the target DNA dC->dU-editing enzyme APOBEC-3G (Homo sapiens, UniProt Q9HC16). Put plainly: Dose Response confirmation of small molecule APOBEC3G DNA Deaminase Inhibitors via a fluorescence-based single-stranded DNA deaminase assay. [Related pubchem assays (depositor defined):AID493012, AID493028]. The class given is functional.
Assay [12] has as its target DNA dC->dU-editing enzyme APOBEC-3A (Homo sapiens, UniProt P31941). As to the kind of experiment: APOBEC3A DNA deaminase inhibitors, dose response, biochemical (AID 504722). Format: functional.
Assay [13] can be described thus: off-target signal loss in HeLa-CEM21 co-culture – HeLa F-luc CTL cells, cherry-picked, counter-screen for HIV-1 Env fusion inhibitor project, dose response (AID 652040).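 Also: potency for signal decrease marking cytotoxic or nonspecific inhibition.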 Format: functional, cell-based. On the technique in general: Counterscreens check selectivity or assay interference.
The nature of assay [14]: inhibitors of HIV Env-driven cell fusion, dose response, cherry-pick (AID 652057). The class given is functional, cell-based.
A short description of assay [15]: inhibitors of clade B AD8 Env fusion, dose response, cell-based, cherry-pick (AID 652062).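 Also: luciferase signal from cell-cell fusion driven by HIV-1 clade B AD8 Env; potency is for inhibitors of fusion seen as a drop in luminescence.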 The class given is functional.
Assay [16] in a line: ZM109 Env clade C HIV-1 fusion inhibitors, dose response, HeLa effector, CEM target cells, luciferase, cherry-pick (AID 652058). The class given is functional, cell-based.
Assay [17] deals with T4, Ubiquitin-conjugating enzyme E2 N (Homo sapiens, UniProt P61088).
T4 sequence (P61088 whole entry): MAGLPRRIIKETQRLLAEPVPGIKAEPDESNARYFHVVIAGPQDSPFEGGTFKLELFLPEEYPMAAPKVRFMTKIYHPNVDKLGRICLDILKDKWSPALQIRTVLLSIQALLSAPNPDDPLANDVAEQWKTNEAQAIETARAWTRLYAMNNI
The class given is functional.

Molecules are shown by their SMILES. Calls of active or inactive are those of the source.

FAD-linked sulfhydryl oxidase ALR, sequence (P55789 whole entry): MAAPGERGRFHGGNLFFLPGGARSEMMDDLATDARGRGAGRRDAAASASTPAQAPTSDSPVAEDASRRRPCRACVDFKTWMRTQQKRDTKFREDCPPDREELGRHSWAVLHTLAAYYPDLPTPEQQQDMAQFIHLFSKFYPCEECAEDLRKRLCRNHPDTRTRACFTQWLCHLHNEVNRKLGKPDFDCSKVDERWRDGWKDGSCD
T1 sequence (P11940 whole entry): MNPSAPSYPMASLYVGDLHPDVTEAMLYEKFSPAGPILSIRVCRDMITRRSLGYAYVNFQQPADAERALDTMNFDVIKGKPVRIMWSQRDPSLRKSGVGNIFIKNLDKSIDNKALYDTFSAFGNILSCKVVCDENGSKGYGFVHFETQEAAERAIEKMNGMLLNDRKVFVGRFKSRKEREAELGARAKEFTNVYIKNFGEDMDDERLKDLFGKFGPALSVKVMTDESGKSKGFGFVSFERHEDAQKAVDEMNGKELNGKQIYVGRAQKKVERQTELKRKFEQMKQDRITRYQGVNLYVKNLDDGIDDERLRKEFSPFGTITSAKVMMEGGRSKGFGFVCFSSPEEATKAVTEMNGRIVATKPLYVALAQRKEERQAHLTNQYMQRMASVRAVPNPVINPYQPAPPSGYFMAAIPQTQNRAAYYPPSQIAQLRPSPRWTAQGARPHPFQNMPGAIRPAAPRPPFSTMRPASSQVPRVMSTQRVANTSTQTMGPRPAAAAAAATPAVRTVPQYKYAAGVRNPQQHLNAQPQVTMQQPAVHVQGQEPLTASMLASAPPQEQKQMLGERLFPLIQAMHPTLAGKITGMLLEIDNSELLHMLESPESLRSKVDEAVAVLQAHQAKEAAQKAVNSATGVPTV
DNA dC->dU-editing enzyme APOBEC-3G, sequence (Q9HC16 whole entry): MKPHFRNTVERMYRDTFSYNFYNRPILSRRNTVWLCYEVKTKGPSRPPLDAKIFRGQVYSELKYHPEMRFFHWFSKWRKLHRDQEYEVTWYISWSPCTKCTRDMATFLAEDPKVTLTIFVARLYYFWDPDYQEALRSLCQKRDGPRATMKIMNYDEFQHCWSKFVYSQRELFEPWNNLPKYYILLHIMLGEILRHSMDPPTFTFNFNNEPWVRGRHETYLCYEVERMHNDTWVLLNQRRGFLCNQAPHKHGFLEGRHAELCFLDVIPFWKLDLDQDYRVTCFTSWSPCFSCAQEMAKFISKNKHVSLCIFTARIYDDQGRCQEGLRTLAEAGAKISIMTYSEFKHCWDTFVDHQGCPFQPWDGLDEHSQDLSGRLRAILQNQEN
DNA dC->dU-editing enzyme APOBEC-3A, sequence (P31941 whole entry, the tested form may be a part): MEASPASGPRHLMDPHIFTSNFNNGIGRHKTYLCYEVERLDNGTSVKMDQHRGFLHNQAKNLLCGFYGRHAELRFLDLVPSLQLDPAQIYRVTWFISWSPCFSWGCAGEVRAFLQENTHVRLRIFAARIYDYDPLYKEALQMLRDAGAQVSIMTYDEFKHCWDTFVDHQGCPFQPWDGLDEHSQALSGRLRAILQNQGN

For orientation: AC50 means the midpoint of the concentration-response curve, whichever way the signal moves. With `Nc1ccc(-c2nc3cc(N)ccc3s2)cc1`, in assay [1], the AC50 is 1.43 µM (active).

The EC50 is the concentration that produces a half-maximal response. Read a low EC50 as higher potency in that assay. Take `C[C@@H]1[C@@H](Sc2ccccc2)CC(=O)O[C@@H]1c1ccc(-c2ccccc2)cc1`: the IC50 in assay [2] and in [5] was > 66 µM (inactive) throughout. The EC50 (in assay [3]; in [4]; in the assay on H4) was > 120 µM (not active) in each case.

What is called GI50 is the concentration that inhibits growth by half. As to `COC1C(C)OC(OC2CC(C)(O)Cc3cc4c(c(O)c32)C(=O)c2c(O)cc3c(c2C4=O)OC2OC3(C)C(O)C(N(C)C)C2O)C(OC)C1(C)OC` (configuration not stated), the GI50 in the assay with SN12K1 was 0.0168 µM (active); with P388, 0.0228 µM (active); in the assay with P388/ADR, 0.5 µM (active).

Turning to `CC(=O)NCCCc1c[nH]c2ccc(Cl)cc12`, in assay [1], the AC50 was 13.5 µM (active).

As for `CCCCCn1c(=O)c2ccccc2n2c(CCl)nnc12`, the CC50 in [6] is > 20 µM (active); in [7] it was 19.2 µM (active); in assay [8], 11.7 µM (active). The IC50 in “cells” is 0.67 µM (active).

As to `C[C@H]1CC[C@H](NC(=O)N(CCCl)N=O)CC1`, the GI50 in the assay on SN12K1 is 26 µM (inactive); in the assay on P388, 9.53 µM (inactive); in the assay on P388/ADR it was 9.73 µM (inactive).

With `COc1cc[n+](C)cc1`, the GI50 with SN12K1, with P388 and in the assay with P388/ADR was > 100 µM (inactive) in each case.

For `COc1ccc(C)cc1NCc1ccc(OC)c(C)c1OC`, in [9], the AC50 was > 20 µM (inactive). The IC50 in assay [10] was 59.5 µM (active).

With `COc1cccc(/C=C2\SC(N3CCCC(C)C3)=NC2=O)c1OC` (configuration not stated), in [1], the AC50 is 5.2 µM (active).

For the molecule `COc1ccc(S(=O)(=O)N2CCCCC2)cc1NC(=O)Cc1ccsc1`, the AC50 in assay [9] is 17.1 µM (active).

Consider `CCn1c(CSc2nc3ccccc3[nH]2)n[nH]c1=S`, for which the IC50 in assay [11] was 5.44 µM (active); in [12], > 100 µM (inactive).

Regarding `Cc1sc2ncnc(N3CCC(C(=O)Nc4cc(S(C)(=O)=O)ccc4Cl)CC3)c2c1C`, the AC50 in [13] is 30.5 µM (active); in assay [14], 8.97 µM (active); in assay [15] it was 12.3 µM (active); in [16] it was 3.3 µM (active).

As to `CN(C)CCCNc1nc2sc3c(c2c(=O)n1CCc1ccccc1)CCCCC3`, the CC50 in [6] is 14.4 µM (active); in [7] it was 19.5 µM (active). Besides, the results for the IC50 (in [17]; in “cells”) were > 20 µM (inactive) and 23.3 µM (active), respectively.

In the case of `FC(F)(F)c1cccc(NC(S)=Nc2cccc(N=C(S)Nc3cccc(C(F)(F)F)c3)n2)c1`, the IC50 in assay [2] and in assay [5] was > 66 µM (inactive) each time.

Regarding `CC1(C)CC(=O)c2cnn(-c3nc4ccccc4[nH]3)c2C1`, in assay [1], the AC50 was 14.8 µM (active).

Turning to `COc1cc(-c2ccc(/N=N/c3c(S(=O)(=O)O)cc4cc(S(=O)(=O)O)cc(N)c4c3O)c(OC)c2)ccc1/N=N/c1c(S(=O)(=O)O)cc2cc(S(=O)(=O)O)cc(N)c2c1O`, the GI50 with SN12K1 and in the assay with P388 was > 100 µM (inactive) throughout.

In the case of `COC(=O)C1=C(C)N(Cc2ccc(Cl)cc2)C(=S)NC1c1ccc(OC)cc1` (configuration not stated), the AC50 is 5.7 µM (active) in assay [13], 3.25 µM (active) in [14], 12.6 µM (active) in [15] and 5.23 µM (active) in [16].

Regarding `O=NN(CCCl)C(=O)NC1CCC(=O)NC1=O` (configuration not stated), the figures for the GI50 in the assay on SN12K1, in the assay on P388 and with P388/ADR were 107 µM (inactive), 17.8 µM (inactive) and 23.4 µM (inactive), respectively.

Take `Cc1nnc(S)n1/N=C/c1ccc(-c2ccccc2[N+](=O)[O-])o1`: the figures for the IC50 in assay [11] and in assay [12] were 4.2 µM (active) and > 100 µM (inactive), respectively.

For the molecule `COc1ccc2c(c1)CCN1C2CCN2C(=O)CCC21` (configuration not stated), the IC50 in [2] and in [5] was > 66 µM (inactive) throughout.

Take `S=P(N1CC1)(N1CC1)N1CC1` [THIOTEPA]: the figures for the GI50 in the assay with SN12K1, in the assay on P388 and with P388/ADR were > 89.1 µM (inactive), 6.93 µM (inactive) and 7.41 µM (inactive), respectively.

On to `CCC[S+]([O-])c1nc(COC(=O)NC)c(COC(=O)NC)n1C` (configuration not stated), for which the GI50 with SN12K1, in the assay on P388 and with P388/ADR was > 100 µM (inactive) throughout.

As for `Clc1nnc(N2CCCCC2)c2ccccc12`, the AC50 in assay [1] is 17.1 µM (active).
